{
  "source": "patent US6251925A",
  "about": "“Therapeutic biaryl derivatives” (Glaxo Wellcome Inc., priority 1998, dated 2001)",
  "format_in_all_cases": "cell-based",
  "key": {"[1]": {"biological_target": "human beta-3-adrenoceptor (Homo sapiens, UniProt P13945)", "sequence (P13945 whole entry)": "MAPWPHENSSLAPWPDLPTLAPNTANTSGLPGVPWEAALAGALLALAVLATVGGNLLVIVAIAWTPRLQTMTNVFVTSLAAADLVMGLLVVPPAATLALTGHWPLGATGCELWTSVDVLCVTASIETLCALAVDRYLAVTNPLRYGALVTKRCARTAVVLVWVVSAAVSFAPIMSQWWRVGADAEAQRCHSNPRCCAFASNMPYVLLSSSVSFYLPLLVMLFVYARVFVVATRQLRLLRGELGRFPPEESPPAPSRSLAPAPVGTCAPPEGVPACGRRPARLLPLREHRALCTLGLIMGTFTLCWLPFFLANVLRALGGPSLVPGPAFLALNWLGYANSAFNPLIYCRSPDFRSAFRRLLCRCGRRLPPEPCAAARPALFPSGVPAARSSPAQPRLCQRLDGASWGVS", "assay": "extracellular cAMP accumulation (agonist activity) in CHO-6CRE-luciferase cells expressing hβ3", "details": "CHO cells expressing hβ3, 60 min, 37° C.", "protocol": "(§1) A particularly useful method for determining agonist activity at human atypical beta-adrenoceptors involves the use of Chinese hamster ovarian (CHO) cells transfected with the human beta-3-adrenoceptor according to Method 1.\n(§2) General cell culture guidelines are observed (Fershney, R. A. (1987) Culture of animal cells: A manual of basic technique. VViley-Liss, Inc., N.Y.). A standard cell culture incubator is used (37° C., 5% CO2 in air, 95% relative humidity). H β3 CHO cells are grown in DMEM/F12 (with pyroxidine.HCl, 15 mM HEPES, L-glutamine), supplanted with 10% heat-inactivated FBS, 500 μg/ml G418, 2 mM L-glutamine, 100 units penicillin G and 100 μg streptomycin sulfate. One confluent flask of cells is trypsinised and resuspended in the above medium at a concentration of 30-40,000 cells/100 μl and plated into 96-well flat bottom plates. The cells are then used for assay within 18-24 hours.\n(§3) The medium is aspirated from each well, and replaced with 180 μl DMEM/F12 with […] IBMX. Antagonists, if required, are added at this stage. The plate is then placed back in the incubator for 30 min. Drugs are then added to the wells (20 μl, 100 x required final concentration)for 60 min. Responses were determined by measuring cAMP levels of a 20 ul sample of extracellular media using a scintillation proximity based radio-immunoassay (NEN Flashplates). CHO-6CRE-iuciferase cell lines which stably express hβ3 receptors are seeded at 30,000 cells/well for 24 hr in DMEM/F12 containing 10% FBS. Media is removed from the cells and replaced with DMEM/F12 buffer (180 μl) containing […] IBMX and 1 mM ascorbic acid for 30 min prior to addition of compound. Vehicle or agonist (20 μl) is added and incubated at 37° C. for 60 minutes. At the end of the incubation period, samples of extracellular media are removed for direct assay in cAMP Flashplates (NEN).\n(§4) As used herein, a compound is considered to be an agonist for hβ3if the compound stimulates the accumulation of extracellular cAMP with CHO-6CRE-luciferase cells expressing hβ3. […] The relative potency of a hβ3 agonist may be compared to its potency for stimulating the accumulation of extracellular cAMP with CHO-6CRE-luciferase cells expressing hβ2 and hβ1."}, "[2]": {"biological_target": "human beta-2-adrenoceptor (Homo sapiens, UniProt P07550)", "sequence (P07550 whole entry)": "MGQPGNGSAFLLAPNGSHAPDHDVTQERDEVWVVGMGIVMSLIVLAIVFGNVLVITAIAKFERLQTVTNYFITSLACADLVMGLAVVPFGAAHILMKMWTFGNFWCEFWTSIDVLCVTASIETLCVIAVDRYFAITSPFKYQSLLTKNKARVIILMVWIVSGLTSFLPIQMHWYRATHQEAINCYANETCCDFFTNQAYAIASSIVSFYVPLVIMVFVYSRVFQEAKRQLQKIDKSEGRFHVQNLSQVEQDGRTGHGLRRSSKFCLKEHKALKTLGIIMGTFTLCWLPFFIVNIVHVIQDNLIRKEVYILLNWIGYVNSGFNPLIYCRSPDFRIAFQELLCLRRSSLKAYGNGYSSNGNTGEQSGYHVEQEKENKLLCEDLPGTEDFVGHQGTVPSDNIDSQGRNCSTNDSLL", "assay": "extracellular cAMP accumulation in CHO-6CRE-luciferase cells expressing hβ2 (selectivity of hβ3 agonists)", "details": "relative potency hβ3 vs hβ2, cAMP accumulation", "protocol": "as §1, §2, §3, §4"}, "[3]": {"biological_target": "human beta-1-adrenoceptor (Homo sapiens, UniProt P08588)", "sequence (P08588 whole entry)": "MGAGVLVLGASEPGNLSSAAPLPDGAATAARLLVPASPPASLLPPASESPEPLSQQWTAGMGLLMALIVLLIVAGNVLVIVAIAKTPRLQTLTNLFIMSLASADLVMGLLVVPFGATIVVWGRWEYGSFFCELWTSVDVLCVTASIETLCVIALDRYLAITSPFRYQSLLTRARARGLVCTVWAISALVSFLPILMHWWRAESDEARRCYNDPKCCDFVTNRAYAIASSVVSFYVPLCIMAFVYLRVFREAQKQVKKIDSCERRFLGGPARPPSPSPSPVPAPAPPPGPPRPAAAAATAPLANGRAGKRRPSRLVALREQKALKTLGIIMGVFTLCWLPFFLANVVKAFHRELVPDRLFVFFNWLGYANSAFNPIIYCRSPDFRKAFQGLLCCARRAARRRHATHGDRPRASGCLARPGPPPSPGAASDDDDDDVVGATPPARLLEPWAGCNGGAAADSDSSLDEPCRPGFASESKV", "assay": "extracellular cAMP accumulation in CHO-6CRE-luciferase cells expressing hβ1 (selectivity of hβ3 agonists)", "details": "relative potency hβ3 vs hβ1, cAMP accumulation", "protocol": "as §1, §2, §3, §4"}},
  "data": [
    {"smiles": "C[C@H](CNc1cccc(-c2cncc(C(=O)O)c2)c1)NC[C@H](O)c1cccc(Cl)c1", "note": "[Example 21, 5-[3-[[2R-[[2-(3-Chlorophenyl)-2R-hydroxyethyl]amino]propyl]amino]phenyl]-3-pyridinecarboxylic acid]", "values": [
      {"measurement": "EC50", "setting": "[1]", "value": "≤ 100", "unit": "nM"},
      {"measurement": "times more potent at hβ3 than at hβ2", "setting": "[2]", "value": "at least 100 times"},
      {"measurement": "times more potent at hβ3 than at hβ1", "setting": "[3]", "value": "at least 100 times"}
    ]},
    {"smiles": "O=C(O)c1cccc(-c2cccc(NCCNC[C@H](O)c3cccc(Cl)c3)c2)c1", "note": "[Example 10, (R)-3'-[[2-[[2-(3-Chlorophenyl)-2-hydroxyethyl]amino]ethyl]amino]-[1,1'-biphenyl]-3-carboxylic acid]", "values": [
      {"measurement": "EC50", "setting": "[1]", "value": "≤ 1", "unit": "nM"},
      {"measurement": "times more potent at hβ3 than at hβ2", "setting": "[2]", "value": "at least 100 times"},
      {"measurement": "times more potent at hβ3 than at hβ1", "setting": "[3]", "value": "at least 100 times"}
    ]},
    {"smiles": "O=C(O)c1cncc(-c2cccc(NCCNC[C@H](O)c3cccc(Cl)c3)c2)c1", "note": "[Example 24, (R)-5-[3-[[2-[[2-(3-chlorophenyl)-2-hydroxyethyl]amino]ethyl]amino]phenyl]-3-pyridinecarboxylic acid]", "values": [
      {"measurement": "EC50", "setting": "[1]", "value": "≤ 1", "unit": "nM"},
      {"measurement": "times more potent at hβ3 than at hβ2", "setting": "[2]", "value": "at least 100 times"},
      {"measurement": "times more potent at hβ3 than at hβ1", "setting": "[3]", "value": "at least 100 times"}
    ]},
    {"smiles": "C[C@H](CNc1cccc(-c2ncccc2C(=O)O)c1)NC[C@H](O)c1cccc(Cl)c1", "note": "[Example 22, 2-[3-[[2R-[[2-(3-Chlorophenyl)-2R-hydroxyethyl]amino]propyl]amino]phenyl]-3-pyridinecarboxylic acid]", "values": [
      {"measurement": "EC50", "setting": "[1]", "value": "≤ 100", "unit": "nM"},
      {"measurement": "times more potent at hβ3 than at hβ2", "setting": "[2]", "value": "at least 100 times"},
      {"measurement": "times more potent at hβ3 than at hβ1", "setting": "[3]", "value": "at least 100 times"}
    ]},
    {"smiles": "O=C(O)c1ccc(-c2cccc(NCCNC[C@H](O)c3cccc(Cl)c3)c2)c(C(=O)O)c1", "note": "[Example 12, (R)-3'-[[2-[[2-(3-Chlorophenyl)-2-hydroxyethyl]amino]ethyl]amino]-[1,1'-biphenyl]-2,4-dicarboxylic acid]", "values": [
      {"measurement": "EC50", "setting": "[1]", "value": "≤ 100", "unit": "nM"},
      {"measurement": "times more potent at hβ3 than at hβ2", "setting": "[2]", "value": "at least 100 times"},
      {"measurement": "times more potent at hβ3 than at hβ1", "setting": "[3]", "value": "at least 100 times"}
    ]},
    {"smiles": "O=C(O)c1cccc(-c2cccc(NCCNC[C@@H](O)COc3ccccc3)c2)c1", "note": "[Example 16]", "values": [
      {"measurement": "EC50", "setting": "[1]", "value": "≤ 1", "unit": "nM"},
      {"measurement": "times more potent at hβ3 than at hβ2", "setting": "[2]", "value": "at least 100 times"},
      {"measurement": "times more potent at hβ3 than at hβ1", "setting": "[3]", "value": "at least 100 times"}
    ]},
    {"smiles": "O=C(O)c1ccc(-c2cccc(NCCNC[C@H](O)c3cccc(Cl)c3)c2)cc1Cl", "note": "[Example 14, (R)-3'-[[2-[[2-(3-Chlorophenyl)-2-hydroxyethyl]amino]ethyl]amino]-[1,1'-biphenyl]-3-chloro-4-carboxylic acid]", "values": [
      {"measurement": "EC50", "setting": "[1]", "value": "≤ 100", "unit": "nM"},
      {"measurement": "times more potent at hβ3 than at hβ2", "setting": "[2]", "value": "at least 100 times"},
      {"measurement": "times more potent at hβ3 than at hβ1", "setting": "[3]", "value": "at least 100 times"}
    ]},
    {"smiles": "O=C(O)c1cccc(-c2cccc(NCCNC[C@H](O)c3cc(Cl)cc(Cl)c3)c2)c1", "note": "[Example 9, (R)-3'-[[2-[[2-(3,5-Dichlorophenyl)-2-hydroxyethyl]amino]ethyl]amino]-[1,1'-biphenyl]-3-carboxylic acid]", "values": [
      {"measurement": "EC50", "setting": "[1]", "value": "≤ 100", "unit": "nM"},
      {"measurement": "times more potent at hβ3 than at hβ2", "setting": "[2]", "value": "at least 100 times"},
      {"measurement": "times more potent at hβ3 than at hβ1", "setting": "[3]", "value": "at least 100 times"}
    ]},
    {"smiles": "Cc1ccc(C(=O)O)cc1-c1cccc(NCCNC[C@H](O)c2cccc(Cl)c2)c1", "note": "[Example 13, (R)-3'-[[2-[[2-(3-Chlorophenyl)-2-hydroxyethyl]amino]ethyl]amino]-[1,1'-biphenyl]-2-methyl-5-carboxylic acid]", "values": [
      {"measurement": "times more potent at hβ3 than at hβ2", "setting": "[2]", "value": "at least 100 times"},
      {"measurement": "times more potent at hβ3 than at hβ1", "setting": "[3]", "value": "at least 100 times"}
    ]},
    {"smiles": "O=C(O)c1cc(-c2cccc(NCCNC[C@H](O)c3cccc(Cl)c3)c2)cc2c1OCC2", "note": "[Example 23]", "values": [
      {"measurement": "EC50", "setting": "[1]", "value": "≤ 100", "unit": "nM"},
      {"measurement": "times more potent at hβ3 than at hβ2", "setting": "[2]", "value": "at least 100 times"},
      {"measurement": "times more potent at hβ3 than at hβ1", "setting": "[3]", "value": "at least 100 times"}
    ]},
    {"smiles": "O=C(O)c1cccc(-c2cccc(OCCNC[C@H](O)c3cccc(Cl)c3)c2)c1", "note": "[Example 17]", "values": [
      {"measurement": "EC50", "setting": "[1]", "value": "≤ 100", "unit": "nM"},
      {"measurement": "times more potent at hβ3 than at hβ2", "setting": "[2]", "value": "at least 100 times"},
      {"measurement": "times more potent at hβ3 than at hβ1", "setting": "[3]", "value": "at least 100 times"}
    ]},
    {"smiles": "C[C@H](CNc1cccc(-c2ccc(C(=O)O)cc2C(=O)O)c1)NC[C@H](O)c1cccc(Cl)c1", "note": "[Example 20, 3'-[[2R-[[2-(3-Chlorophenyl)-2R-hydroxyethyl]amino]propyl]amino]-[1,1'-biphenyl]-2,4-dicarbonylic acid]", "values": [
      {"measurement": "EC50", "setting": "[1]", "value": "≤ 1", "unit": "nM"},
      {"measurement": "times more potent at hβ3 than at hβ2", "setting": "[2]", "value": "at least 100 times"},
      {"measurement": "times more potent at hβ3 than at hβ1", "setting": "[3]", "value": "at least 100 times"}
    ]},
    {"smiles": "COC(=O)c1cc(C(=O)O)ccc1-c1cccc(NCCNC[C@H](O)c2cccc(Cl)c2)c1", "note": "[Example 11, (R)-3'-[[2-[[2-(3-Chlorophenyl)-2-hydroxyethyl]amino]ethyl]amino]-[1,1'-biphenyl]-2,4-dicarboxylic acid 2-methyl ester]", "values": [
      {"measurement": "EC50", "setting": "[1]", "value": "≤ 100", "unit": "nM"},
      {"measurement": "times more potent at hβ3 than at hβ2", "setting": "[2]", "value": "at least 100 times"},
      {"measurement": "times more potent at hβ3 than at hβ1", "setting": "[3]", "value": "at least 100 times"}
    ]}
  ]
}
